The compounds below were run on human hepatoma Huh-7 cell line harboring a HCV replicon (assay: HCV replicon assay (inhibition of viral replication, luciferase readout)). Details: Hepatitis C virus, 72 h, Huh-7 HCV replicon cells, 3 days incubation.
Format: cell-based
How it was run: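 Huh-7 replicon cells were exposed to 10-point 3-fold compound dilutions (0.44% DMSO) for 3 days at 37 °C. Replicon replication was read by Dual-Glo luciferase, with background from protease-inhibitor wells subtracted, and viability by calcein AM. EC50/CC50 came from a Hill-equation fit versus DMSO controls.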
For CC(C)(C)C#Cc1cc(N(C(=O)[C@H]2CC[C@H](C)CC2)[C@H]2CCN(S(=O)(=O)c3cccs3)C2)c(C(=O)O)s1 [Compound 213, 5-(3,3-Dimethyl-but-1-ynyl)-3-{(4-methyl-cyclohexanecarbonyl)-[1-(thiophene-2-sulfonyl)-pyrrolidin-3-yl]-amino}-thiophene-2-carboxylic acid], the inhibition at 2 µM was 99.9%. In the case of CC(C)(C)C#Cc1cc(N(C(=O)[C@H]2CC[C@H](C)CC2)[C@H]2CCN(S(=O)(=O)c3cnc(=O)[nH]c3)C2)c(C(=O)O)s1 [Compound 214, 5-(3,3-Dimethyl-but-1-ynyl)-3-{(4-methyl-cyclohexanecarbonyl)-[1-(2-oxo-1,2-dihydro-pyrimidine-5-sulfonyl)-pyrrolidin-3-yl]-amino}-thiophene-2-carboxylic acid], the inhibition at 2 µM was 69.9%. Compound CC(C)(C)C#Cc1cc(N(C(=O)[C@H]2CC[C@H](C)CC2)[C@H]2CCN(S(=O)(=O)c3ccccn3)C2)c(C(=O)O)s1 [Compound 215, 5-(3,3-Dimethyl-but-1-ynyl)-3-{(4-methyl-cyclohexanecarbonyl)-[1-(pyridine-2-sulfonyl)-pyrrolidin-3-yl]-amino}-thiophene-2-carboxylic acid] has an inhibition at 2 µM of 100%. CC(C)(C)C#Cc1cc(N(C(=O)[C@H]2CC[C@H](C)CC2)[C@H]2CCN(S(=O)(=O)c3cccnc3)C2)c(C(=O)O)s1 [Compound 216, 5-(3,3-Dimethyl-but-1-ynyl)-3-{(4-methyl-cyclohexanecarbonyl)-[1-(pyridine-3-sulfonyl)-pyrrolidin-3-yl]-amino}-thiophene-2-carboxylic acid] was tested, and the inhibition at 2 µM was 100%. CC(C)(C)C#Cc1cc(N(C(=O)[C@H]2CC[C@H](C)CC2)[C@H]2CC[C@@H](OC3CCOCC3)CC2)c(C(=O)O)s1 [Compound 219, 5-(3,3-dimethylbut-1-ynyl)-3-((1r,4R)-4-methyl-N-((1r,4R)-4-(tetrahydro-2H-pyran-4-yloxy)cyclohexyl)cyclohexanecarboxamido)thiophene-2-carboxylic acid] was tested, and the inhibition at 2 µM was 100%. Work on CC(C)(C)C#Cc1cc(N(C(=O)[C@H]2CC[C@H](C)CC2)C2CCC(O[C@@H]3CO[C@H]4OCC[C@H]43)CC2)c(C(=O)O)s1 (stereo partly drawn) [Compound 221, 5-(3,3-dimethylbut-1-ynyl)-3-((1r,4R)-4-methyl-N-(4-((3S,3aS,6aR)-tetrahydro-2H-furo[2,3-b]furan-3-yloxy)cyclohexyl)cyclohexanecarboxamido)thiophene-2-carboxylic acid] yielded an inhibition at 2 µM of 100%. With CC(C)(C)C#Cc1cc(N(C(=O)[C@H]2CC[C@H](C)CC2)[C@H]2CC[C@H](OC3CCN(C(=O)OC(C)(C)C)CC3)CC2)c(C(=O)O)s1 [Compound 222, 3-(N-(4-(1-(tert-butoxycarbonyl)piperidin-4-yloxy)cyclohexyl)-4-methylcyclohexanecarboxamido)-5-(3,3-dimethylbut-1-ynyl)thiophene-2-carboxylic acid] the inhibition at 2 µM was 97.7%. CC(C)(C)C#Cc1cc(N(C(=O)[C@H]2CC[C@H](C)CC2)[C@H]2CC[C@H](OC3CCNCC3)CC2)c(C(=O)O)s1 [Compound 223, 5-(3,3-dimethylbut-1-ynyl)-3-(4-methyl-N-(4-(piperidin-4-yloxy)cyclohexyl)cyclohexanecarboxamido)thiophene-2-carboxylic acid] was tested, and the inhibition at 2 µM was 100%. CC(C)(C)C#Cc1cc(N(C(=O)[C@H]2CC[C@H](C)CC2)[C@H]2CC[C@H](OC3CCOC3)CC2)c(C(=O)O)s1 (stereo partly shown) [Compound 224, 5-(3,3-dimethylbut-1-ynyl)-3-(4-methyl-N-(4-(tetrahydrofuran-3-yloxy)cyclohexyl)cyclohexanecarboxamido)thiophene-2-carboxylic acid] showed an inhibition at 2 µM of 99.9%. CC(C)(C)C#Cc1cc(N(C(=O)[C@H]2CC[C@H](C)CC2)[C@H]2CC[C@H](O[C@H]3CCN(C(=O)OC(C)(C)C)C3)CC2)c(C(=O)O)s1 [Compound 225] showed an inhibition at 2 µM of 98.4%. CC(C)(C)C#Cc1cc(N(C(=O)[C@H]2CC[C@H](C)CC2)[C@H]2CC[C@H](O[C@H]3CCNC3)CC2)c(C(=O)O)s1 [Compound 226, 5-(3,3-dimethylbut-1-ynyl)-3-(4-methyl-N-(4-((S)-pyrrolidin-3-yloxy)cyclohexyl)cyclohexanecarboxamido)thiophene-2-carboxylic acid] was tested, and the inhibition at 2 µM was 99.9%. Work on C[C@@H]1CC[C@@H](C(=O)N(c2cc(C#CC(C)(C)C)sc2C(=O)O)[C@H]2CC[C@H](OC3CCOC3)CC2)[C@@H](O)C1 (stereo partly shown) [Compound 227] yielded an inhibition at 2 µM of 100%. C[C@H]1CC[C@H](C(=O)N(c2cc(C#CC3CC3)sc2C(=O)O)[C@H]2CC[C@H](Oc3ccccn3)CC2)CC1 [Compound 229, 5-(2-cyclopropylethynyl)-3-(4-methyl-N-(4-(pyridin-2-yloxy)cyclohexyl)cyclohexanecarboxamido)thiophene-2-carboxylic acid] was tested, and the inhibition at 2 µM was 82.6%. For CC(C)(C)C#Cc1cc(N(C(=O)[C@H]2CC[C@H](C)CC2)[C@H]2CC[C@H](O[C@@H]3CCN(C(=O)OC(C)(C)C)C3)CC2)c(C(=O)O)s1 [Compound 230, 3-(N-(4-((R)-1-(tert-butoxycarbonyl)pyrrolidin-3-yloxy)cyclohexyl)-4-methylcyclohexanecarboxamido)-5-(3,3-dimethylbut-1-ynyl)thiophene-2-carboxylic acid], the inhibition at 2 µM was 98.4%. Compound CC(C)(C)C#Cc1cc(N(C(=O)[C@H]2CC[C@H](C)CC2)[C@H]2CC[C@H](O[C@@H]3CCNC3)CC2)c(C(=O)O)s1 [Compound 231, 5-(3,3-dimethylbut-1-ynyl)-3-(4-methyl-N-(4-((R)-pyrrolidin-3-yloxy)cyclohexyl)cyclohexanecarboxamido)thiophene-2-carboxylic acid] has an inhibition at 2 µM of 99.9%. CC1=CCC(C(=O)N(c2cc(C#CC(C)(C)C)sc2C(=O)O)[C@H]2CC[C@H](O[C@H]3CCOC3)CC2)[C@@H](C)C1 (stereo partly drawn) [Compound 301, 5-(3,3-dimethyl-but-1-ynyl)-3-{(4,6S-dimethyl-cyclohex-3-enecarbonyl)-[4-(tetrahydro-furan-3S-yloxy)-trans-cyclohexyl]-amino}-thiophene-2-carboxylic acid] was tested, and the inhibition at 2 µM was 99.8%. In the case of CC1=CCC(C(=O)N(c2cc(C#CC(C)(C)C)sc2C(=O)O)[C@H]2CC[C@H](O[C@H]3CCOC3)CC2)[C@H](C)C1 (stereo partly drawn) [Compound 304, 5-(3,3-dimethyl-but-1-ynyl)-3-{(4,6R-dimethyl-cyclohex-3-enecarbonyl)-[4-(tetrahydro-furan-3S-yloxy)-trans-cyclohexyl]-amino}-thiophene-2-carboxylic acid], the inhibition at 2 µM was 100%. C[C@@H]1CC[C@@H](C(=O)N(c2cc(C#CC(C)(C)C)sc2C(=O)O)[C@H]2CC[C@H](O[C@H]3CCOC3)CC2)[C@@H](O)C1 [Compound 309, 5-(3,3-dimethylbut-1-ynyl)-3-((1R,2S,4R)-2-hydroxy-4-methyl-N-(4-(tetrahydrofuran-3S-yloxy)cyclohexyl)cyclohexanecarboxamido)thiophene-2-carboxylic acid] showed an inhibition at 2 µM of 100%. In the case of C[C@@H]1CC[C@@H](C(=O)N(c2cc(C#CC(C)(C)C)sc2C(=O)O)[C@H]2CC[C@H](O[C@@H]3CCOC3)CC2)[C@@H](O)C1 [Compound 310, 5-(3,3-dimethylbut-1-ynyl)-3-((1R,2S,4R)-2-hydroxy-4-methyl-N-(4-(tetrahydrofuran-3R-yloxy)cyclohexyl)cyclohexanecarboxamido)thiophene-2-carboxylic acid], the inhibition at 2 µM was 100%.

Reference: US8569302B2, “Inhibitors of flaviviridae viruses” (Gilead Sciences, Inc., priority 2009, dated 2013)
